Biological target: T1, HCV1b NS5B polymerase delta 21 (Hepatitis C virus genotype 1b, UniProt P26663)
T1 construct: purified HCV1b NS5B polymerase delta 21
Experiment: RNA-Dependent RNA HCV NS5B (Polymerase) Assay and IC50 Determination
Type: biochemical
Outline: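 Purified NS5B Δ21 (0.6 μg) with polyA:U16 template, 10 μM UTP plus α-32P UTP in Tris-HCl pH 7.5, 5 mM MgCl2, 0.5% Triton X-100, 60 min at 23°C with varied compound concentrations. Radiolabelled RNA captured on filters, quantified by phosphorimaging; IC50 from triplicate assays.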

T1 sequence (P26663 2420-2989): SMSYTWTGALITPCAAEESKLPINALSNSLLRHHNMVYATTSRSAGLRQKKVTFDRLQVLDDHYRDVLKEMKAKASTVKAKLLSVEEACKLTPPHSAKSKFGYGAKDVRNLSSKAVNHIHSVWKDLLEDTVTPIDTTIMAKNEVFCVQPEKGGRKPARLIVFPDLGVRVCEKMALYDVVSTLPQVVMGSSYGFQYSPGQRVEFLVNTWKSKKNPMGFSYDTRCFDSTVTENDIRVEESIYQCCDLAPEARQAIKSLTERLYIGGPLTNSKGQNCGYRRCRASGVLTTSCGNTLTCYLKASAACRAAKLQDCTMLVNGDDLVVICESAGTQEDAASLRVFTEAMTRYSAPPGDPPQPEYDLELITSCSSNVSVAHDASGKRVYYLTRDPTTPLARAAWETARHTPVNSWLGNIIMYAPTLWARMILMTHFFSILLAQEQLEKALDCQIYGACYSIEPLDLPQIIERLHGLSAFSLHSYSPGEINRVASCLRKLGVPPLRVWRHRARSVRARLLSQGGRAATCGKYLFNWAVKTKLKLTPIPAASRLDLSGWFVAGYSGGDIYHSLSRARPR

| Structure (SMILES) | IC50 [µM] |
| --- | --- |
| CC1CCC(C2=C(c3cc(C#CC(C)(C)C)sc3C(=O)O)CCN(Cc3c(C(F)(F)F)nn(C)c3Cl)C2)CC1 (centres unmarked) [Example 136, 3-[1-(5-Chloro-1-methyl-3-trifluoromethyl-1H-pyrazol-4-ylmethyl)-5-(4-methyl-cyclohexyl)-1,2,3,6-tetrahydro-pyridin-4-yl]-5-(3,3-dimethyl-but-1-ynyl)-thiophene-2-carboxylic acid] | > 10 |
| COCCN1CCC(C2CCC(C)CC2)=C(c2cc(C#CC(C)(C)C)sc2C(=O)O)C1 (centres unmarked) [Example 137, 5-(3,3-Dimethyl-but-1-ynyl)-3-[1-(2-methoxy-ethyl)-4-(4-methyl-cyclohexyl)-1,2,5,6-tetrahydro-pyridin-3-yl]-thiophene-2-carboxylic acid] | > 10 |
| CC1CCC(C2=C(c3cc(C#CC4CC4)sc3C(=O)O)CCN(CCO)C2)CC1 (centres unmarked) [Example 138, 5-Cyclopropylethynyl-3-[1-(2-hydroxy-ethyl)-5-(4-methyl-cyclohexyl)-1,2,3,6-tetrahydro-pyridin-4-yl]-thiophene-2-carboxylic acid] | < 3 |
| CC1CCC(C2=C(c3cc(-c4ccc(-c5nc6cccnc6n5C)cc4)sc3C(=O)O)CCN(C)C2)CC1 (centres unmarked) [Example 139, 5-[4-(3-Methyl-3H-imidazo[4,5-b]pyridin-2-yl)-phenyl]-3-[1-methyl-5-(4-methyl-cyclohexyl)-1,2,3,6-tetrahydro-pyridin-4-yl]-thiophene-2-carboxylic acid] | > 10 |
| CC1CCC(C2=C(c3cc(-c4ccc(-c5nc6cccnc6[nH]5)cc4)sc3C(=O)O)CCN(C)C2)CC1 (centres unmarked) [Example 140, 5-[4-(3H-Imidazol-[4,5-b]pyridin-2-yl)-phenyl]-3-[1-methyl-5-(4-methyl-cyclohexyl)-1,2,3,6-tetrahydro-pyridin-4-yl]-thiophene-2-carboxylic acid] | 3 to 10 |
| CC1CCC(C2=C(c3cc(-c4ccc(-c5cc6ncccn6n5)cc4)sc3C(=O)O)CCN(Cc3ccccn3)C2)CC1 (centres unmarked) [Example 141, 3-[5-(4-Methyl-cyclohexyl)-1-pyridin-2-ylmethyl-1,2,3,6-tetrahydro-pyridin-4-yl]-5-(4-pyrazolo[1,5-a]pyrimidin-2-yl-phenyl)-thiophene-2-carboxylic acid] | 3 to 10 |
| Cc1nn(C)cc1CN1CCC(c2cc(C#CC(C)(C)C)sc2C(=O)O)=C(C2CCC(C)CC2)C1 (centres unmarked) [Example 142, 5-(3,3-Dimethyl-but-1-ynyl)-3-[1-(1,3-dimethyl-1H-pyrazol-4-ylmethyl)-5-(4-methyl-cyclohexyl)-1,2,3,6-tetrahydro-pyridin-4-yl]-thiophene-2-carboxylic acid] | < 3 |
| CC1CCC(C2=C(c3cc(-c4ccccc4)sc3C(=O)O)CCN(Cc3ccc4ccccc4n3)C2)CC1 (centres unmarked) [Example 143, 3-[5-(4-Methyl-cyclohexyl)-1-quinolin-2-ylmethyl-1,2,3,6-tetrahydro-pyridin-4-yl]-5-phenyl-thiophene-2-carboxylic acid] | > 10 |
| CC1CCC(C2=C(c3cc(-c4ccccc4)sc3C(=O)O)CCN(Cc3ccnc(Br)c3)C2)CC1 (centres unmarked) [Example 144, 3-[1-(2-Bromo-pyridin-4-ylmethyl)-5-(4-methyl-cyclohexyl)-1,2,3,6-tetrahydro-pyridin-4-yl]-5-phenyl-thiophene-2-carboxylic acid] | 3 to 10 |
| CC1CCC(C2=C(c3cc(-c4ccccc4)sc3C(=O)O)CCN(Cc3ccnc(-c4cccs4)c3)C2)CC1 (centres unmarked) [Example 145, 3-[5-(4-Methyl-cyclohexyl)-1-(2-thiophen-2-yl-pyridin-4-ylmethyl)-1,2,3,6-tetrahydro-pyridin-4-yl]-5-phenyl-thiophene-2-carboxylic acid] | > 10 |
| CC1CCC(C2=C(c3cc(-c4ccccc4)sc3C(=O)O)CCN(Cc3c(Cl)cncc3Cl)C2)CC1 (centres unmarked) [Example 146, 3-[1-(3,5-Dichloro-pyridin-4-ylmethyl)-5-(4-methyl-cyclohexyl)-1,2,3,6-tetrahydro-pyridin-4-yl]-5-phenyl-thiophene-2-carboxylic acid] | > 10 |
| CC1CCC(C2=C(c3cc(-c4ccccc4)sc3C(=O)O)CCN(Cc3ccnc(-c4ccc(F)cc4)c3)C2)CC1 (centres unmarked) [Example 147, 3-[1-[2-(4-Fluoro-phenyl)-pyridin-4-ylmethyl]-5-(4-methyl-cyclohexyl)-1,2,3,6-tetrahydro-pyridin-4-yl]-5-phenyl-thiophene-2-carboxylic acid] | > 10 |
| CC1CCC(C2=C(c3cc(-c4ccccc4)sc3C(=O)O)CCN(Cc3ccnc4ccccc34)C2)CC1 (centres unmarked) [Example 148, 3-[5-(4-Methyl-cyclohexyl)-1-quinolin-4-ylmethyl-1,2,3,6-tetrahydro-Pyridin-4-yl]-5-phenyl-thiophene-2-carboxylic acid] | > 10 |
| CC1CCC(C2=C(c3cc(-c4ccccc4)sc3C(=O)O)CCN(Cc3ccc(Br)cn3)C2)CC1 (centres unmarked) [Example 149, 3-[1-(5-Bromo-pyridin-2-ylmethyl)-5-(4-methyl-cyclohexyl)-1,2,3,6-tetrahydro-pyridin-4-yl]-5-phenyl-thiophene-2-carboxylic acid] | 3 to 10 |
| CCc1cc(CC)n2nc(CN3CCC(c4cc(-c5ccccc5)sc4C(=O)O)=C(C4CCC(C)CC4)C3)nc2n1 (centres unmarked) [Example 150, 3-[1-(5,7-Diethyl-[1,2,4]triazolo[1,5-a]pyrimidin-2-ylmethyl)-5-(4-methyl-cyclohexyl)-1,2,3,6-tetrahydro-pyridin-4-yl]-5-phenyl-thiophene-2-carboxylic acid] | < 3 |
| CC1CCC(C2=C(c3cc(-c4ccccc4)sc3C(=O)O)CCN(Cc3nc4nc(C(C)C)cc(C(C)C)n4n3)C2)CC1 (centres unmarked) [Example 151, 3-[1-(5,7-Diisopropyl-[1,2,4]triazolo[1,5-a]pyrimidin-2-ylmethyl)-5-(4-methyl-cyclohexyl)-1,2,3,6-tetrahydro-pyridin-4-yl]-5-phenyl-thiophene-2-carboxylic acid] | 3 to 10 |
| CC1CCC(C2=C(c3cc(-c4ccccc4)sc3C(=O)O)CCN(C(=O)Cn3cnc4ccccc43)C2)CC1 (centres unmarked) [Example 152, 3-[1-(2-Benzoimidazol-1-yl-acetyl)-5-(4-methyl-cyclohexyl)-1,2,3,6-tetrahydro-pyridin-4-yl]-5-phenyl-thiophene-2-carboxylic acid] | < 3 |
| CC1CCC(C2=C(c3cc(-c4ccccc4)sc3C(=O)O)CCN(C(=O)Cc3nc4ccccn4n3)C2)CC1 (centres unmarked) [Example 153, 3-[5-(4-Methyl-cyclohexyl)-1-(2-[1,2,4]triazolo[1,5-a]pyridin-2-yl-acetyl)-1,2,3,6-tetrahydro-pyridin-4-yl]-5-phenyl-thiophene-2-carboxylic acid] | 3 to 10 |
| CC1CCC(C2=C(c3cc(-c4ccccc4)sc3C(=O)O)CCN(C(=O)c3ccc(C(F)(F)F)nc3)C2)CC1 (centres unmarked) [Example 154, 3-[5-(4-Methyl-cyclohexyl)-1-(6-trifluoromethyl-pyridine-3-carbonyl)-1,2,3,6-tetrahydro-pyridin-4-yl]-5-phenyl-thiophene-2-carboxylic acid] | < 3 |
| CC1CCC(C2=C(c3cc(-c4ccccc4)sc3C(=O)O)CCN(C(=O)c3nccnc3N)C2)CC1 (centres unmarked) [Example 155, 3-[1-(3-Amino-pyrazine-2-carbonyl)-5-(4-methyl-cyclohexyl)-1,2,3,6-tetrahydro-pyridin-4-yl]-5-phenyl-thiophene-2-carboxylic acid] | > 10 |
